Legend:
[1] = tested on: SETFA: giant foxtail (Setaria faberi); experiment: Post-Emergent Test II herbicidal activity; assay type: in vivo; conditions: post-emergence, 336 h, 14 days, read-out: Visual Growth Reduction (%) 14 Days After Application SETFA; for pest or weed control at 35 g/ha: 35 g ai/ha; for pest or weed control at 70 g/ha: 70 g ai/ha; for pest or weed control at 140 g/ha: 140 g ai/ha
Outline: (§1)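 Seedlings raised 7-21 d under greenhouse conditions were treated at the first or second true leaf stage. Compounds, formulated with crop oil concentrate and surfactant, were applied overhead at 187 L/ha across a serial dilution series, with solvent-blank controls. Percent visual injury was scored after 14 d.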

[2] = tested on: CYPES: yellow nutsedge (Cyperus esculentus); experiment: Post-Emergent Test II herbicidal activity; assay type: in vivo; conditions: post-emergence, 336 h, 14 days, read-out: Visual Growth Reduction (%) 14 Days After Application CYPES; for pest or weed control at 35 g/ha: 35 g ai/ha; for pest or weed control at 70 g/ha: 70 g ai/ha; for pest or weed control at 140 g/ha: 140 g ai/ha
Outline: as §1

[3] = tested on: HELAN: sunflower (Helianthus annuus); experiment: Post-Emergent Test II herbicidal activity; assay type: in vivo; conditions: post-emergence, 336 h, 14 days, read-out: Visual Growth Reduction (%) 14 Days After Application HELAN; for pest or weed control at 35 g/ha: 35 g ai/ha; for pest or weed control at 70 g/ha: 70 g ai/ha; for pest or weed control at 140 g/ha: 140 g ai/ha
Outline: as §1

[4] = tested on: ECHCG: barnyardgrass (Echinochloa crus-galli); experiment: Post-Emergent Test II herbicidal activity; assay type: in vivo; conditions: post-emergence, 336 h, 14 days, read-out: Visual Growth Reduction (%) 14 Days After Application ECHCG; for pest or weed control at 35 g/ha: 35 g ai/ha; for pest or weed control at 70 g/ha: 70 g ai/ha; for pest or weed control at 140 g/ha: 140 g ai/ha
Outline: as §1

[5] = tested on: TRZAS: wheat, spring (Triticum aestivum); experiment: Post-Emergent Test II herbicidal activity; assay type: in vivo; conditions: post-emergence, 336 h, 14 days, read-out: Visual Growth Reduction (%) 14 Days After Application TRZAS; for pest or weed control at 35 g/ha: 35 g ai/ha; for pest or weed control at 70 g/ha: 70 g ai/ha; for pest or weed control at 140 g/ha: 140 g ai/ha
Outline: as §1

[6] = tested on: ABUTH: velvetleaf (Abutilon theophrasti); experiment: Post-Emergent Test II herbicidal activity; assay type: in vivo; conditions: post-emergence, 336 h, 14 days, read-out: Visual Growth Reduction (%) 14 Days After Application ABUTH; for pest or weed control at 35 g/ha: 35 g ai/ha; for pest or weed control at 70 g/ha: 70 g ai/ha; for pest or weed control at 140 g/ha: 140 g ai/ha
Outline: as §1

[7] = tested on: ORYSA: rice (Oryza sativa); experiment: Post-Emergent Test II herbicidal activity; assay type: in vivo; conditions: post-emergence, 336 h, 14 days, read-out: Visual Growth Reduction (%) 14 Days After Application ORYSA; for pest or weed control at 35 g/ha: 35 g ai/ha; for pest or weed control at 70 g/ha: 70 g ai/ha; for pest or weed control at 140 g/ha: 140 g ai/ha
Outline: as §1

[8] = tested on: EPHHL: wild poinsettia (Euphorbia heterophylla); experiment: Post-Emergent Test II herbicidal activity; assay type: in vivo; conditions: post-emergence, 336 h, 14 days, read-out: Visual Growth Reduction (%) 14 Days After Application EPHHL; for pest or weed control at 35 g/ha: 35 g ai/ha; for pest or weed control at 70 g/ha: 70 g ai/ha; for pest or weed control at 140 g/ha: 140 g ai/ha
Outline: as §1

[9] = tested on: ZEAMX: maize, corn (Zea mays); experiment: Post-Emergent Test II herbicidal activity; assay type: in vivo; conditions: post-emergence, 336 h, 14 days, read-out: Visual Growth Reduction (%) 14 Days After Application ZEAMX; for pest or weed control at 35 g/ha: 35 g ai/ha; for pest or weed control at 70 g/ha: 70 g ai/ha; for pest or weed control at 140 g/ha: 140 g ai/ha
Outline: as §1

[10] = tested on: AMARE: redroot pigweed (Amaranthus retroflexus); experiment: Post-Emergent Test II herbicidal activity; assay type: in vivo; conditions: post-emergence, 336 h, 14 days, read-out: Visual Growth Reduction (%) 14 Days After Application AMARE; for pest or weed control at 35 g/ha: 35 g ai/ha; for pest or weed control at 70 g/ha: 70 g ai/ha; for pest or weed control at 140 g/ha: 140 g ai/ha
Outline: as §1

[11] = tested on: CHEAL: lambsquarters (Chenopodium album); experiment: Post-Emergent Test II herbicidal activity; assay type: in vivo; conditions: post-emergence, 336 h, 14 days, read-out: Visual Growth Reduction (%) 14 Days After Application CHEAL; for pest or weed control at 35 g/ha: 35 g ai/ha; for pest or weed control at 70 g/ha: 70 g ai/ha; for pest or weed control at 140 g/ha: 140 g ai/ha
Outline: as §1

[12] = tested on: BRSNN: oilseed rape, canola (Brassica napus); experiment: Post-Emergent Test II herbicidal activity; assay type: in vivo; conditions: post-emergence, 336 h, 14 days, read-out: Visual Growth Reduction (%) 14 Days After Application BRSNN; for pest or weed control at 35 g/ha: 35 g ai/ha; for pest or weed control at 70 g/ha: 70 g ai/ha; for pest or weed control at 140 g/ha: 140 g ai/ha
Outline: as §1

COC(=O)c1nc(-c2cc3nonc3cc2Cl)cc(N)c1Cl [Compound 8]
pest or weed control at 35 g/ha [1]: 0 to 29%
pest or weed control at 70 g/ha [1]: 0 to 29%
pest or weed control at 140 g/ha [1]: 0 to 29%
pest or weed control at 35 g/ha [2]: 0 to 29%
pest or weed control at 70 g/ha [2]: 0 to 29%
pest or weed control at 140 g/ha [2]: 0 to 29%
pest or weed control at 35 g/ha [3]: 0 to 29%
pest or weed control at 70 g/ha [3]: 0 to 29%
pest or weed control at 140 g/ha [3]: 0 to 29%
pest or weed control at 35 g/ha [4]: 0 to 29%
pest or weed control at 70 g/ha [4]: 0 to 29%
pest or weed control at 140 g/ha [4]: 0 to 29%
pest or weed control at 35 g/ha [5]: 0 to 29%
pest or weed control at 70 g/ha [5]: 0 to 29%
pest or weed control at 140 g/ha [5]: 0 to 29%
pest or weed control at 35 g/ha [6]: 0 to 29%
pest or weed control at 70 g/ha [6]: 0 to 29%
pest or weed control at 140 g/ha [6]: 0 to 29%
pest or weed control at 35 g/ha [7]: 0 to 29%
pest or weed control at 70 g/ha [7]: 0 to 29%
pest or weed control at 140 g/ha [7]: 0 to 29%
pest or weed control at 35 g/ha [8]: 0 to 29%
pest or weed control at 70 g/ha [8]: 0 to 29%
pest or weed control at 140 g/ha [8]: 0 to 29%
pest or weed control at 35 g/ha [9]: 0 to 29%
pest or weed control at 70 g/ha [9]: 0 to 29%
pest or weed control at 140 g/ha [9]: 0 to 29%
pest or weed control at 35 g/ha [10]: 0 to 29%
pest or weed control at 70 g/ha [10]: 0 to 29%
pest or weed control at 140 g/ha [10]: 0 to 29%
pest or weed control at 35 g/ha [11]: 0 to 29%
pest or weed control at 70 g/ha [11]: 0 to 29%
pest or weed control at 140 g/ha [11]: 0 to 29%
pest or weed control at 35 g/ha [12]: 0 to 29%
pest or weed control at 70 g/ha [12]: 0 to 29%
pest or weed control at 140 g/ha [12]: 30 to 44%
melting point: 224 to 226 °C

COC(=O)c1nc(-c2ccc3nsnc3c2)c(F)c(N)c1Cl [Compound 11]
pest or weed control at 35 g/ha [1]: 45 to 59%
pest or weed control at 70 g/ha [1]: 85 to 94%
pest or weed control at 140 g/ha [1]: 85 to 94%
pest or weed control at 35 g/ha [2]: 95 to 100%
pest or weed control at 70 g/ha [2]: 95 to 100%
pest or weed control at 140 g/ha [2]: 95 to 100%
pest or weed control at 35 g/ha [3]: 85 to 94%
pest or weed control at 70 g/ha [3]: 85 to 94%
pest or weed control at 140 g/ha [3]: 95 to 100%
pest or weed control at 35 g/ha [4]: 85 to 94%
pest or weed control at 70 g/ha [4]: 95 to 100%
pest or weed control at 140 g/ha [4]: 95 to 100%
pest or weed control at 35 g/ha [5]: 0 to 29%
pest or weed control at 70 g/ha [5]: 0 to 29%
pest or weed control at 140 g/ha [5]: 0 to 29%
pest or weed control at 35 g/ha [6]: 85 to 94%
pest or weed control at 70 g/ha [6]: 95 to 100%
pest or weed control at 140 g/ha [6]: 95 to 100%
pest or weed control at 35 g/ha [7]: 0 to 29%
pest or weed control at 70 g/ha [7]: 0 to 29%
pest or weed control at 140 g/ha [7]: 0 to 29%
pest or weed control at 35 g/ha [8]: 95 to 100%
pest or weed control at 70 g/ha [8]: 95 to 100%
pest or weed control at 140 g/ha [8]: 95 to 100%
pest or weed control at 35 g/ha [9]: 60 to 74%
pest or weed control at 70 g/ha [9]: 60 to 74%
pest or weed control at 140 g/ha [9]: 75 to 84%
pest or weed control at 35 g/ha [10]: 95 to 100%
pest or weed control at 70 g/ha [10]: 95 to 100%
pest or weed control at 140 g/ha [10]: 95 to 100%
pest or weed control at 35 g/ha [11]: 85 to 94%
pest or weed control at 70 g/ha [11]: 95 to 100%
pest or weed control at 140 g/ha [11]: 95 to 100%
pest or weed control at 35 g/ha [12]: 60 to 74%
pest or weed control at 70 g/ha [12]: 75 to 84%
pest or weed control at 140 g/ha [12]: 75 to 84%
melting point: 196 to 198 °C

COC(=O)c1nc(-c2cc3nsnc3cc2F)cc(N)c1Cl [Compound 13]
pest or weed control at 35 g/ha [1]: 60 to 74%
pest or weed control at 70 g/ha [1]: 60 to 74%
pest or weed control at 140 g/ha [1]: 85 to 94%
pest or weed control at 35 g/ha [2]: 0 to 29%
pest or weed control at 70 g/ha [2]: 0 to 29%
pest or weed control at 140 g/ha [2]: 30 to 44%
pest or weed control at 35 g/ha [3]: 30 to 44%
pest or weed control at 70 g/ha [3]: 60 to 74%
pest or weed control at 140 g/ha [3]: 75 to 84%
pest or weed control at 35 g/ha [4]: 75 to 84%
pest or weed control at 70 g/ha [4]: 85 to 94%
pest or weed control at 140 g/ha [4]: 85 to 94%
pest or weed control at 35 g/ha [5]: 0 to 29%
pest or weed control at 70 g/ha [5]: 0 to 29%
pest or weed control at 140 g/ha [5]: 0 to 29%
pest or weed control at 35 g/ha [6]: 75 to 84%
pest or weed control at 70 g/ha [6]: 85 to 94%
pest or weed control at 140 g/ha [6]: 85 to 94%
pest or weed control at 35 g/ha [7]: 0 to 29%
pest or weed control at 70 g/ha [7]: 30 to 44%
pest or weed control at 140 g/ha [7]: 30 to 44%
pest or weed control at 35 g/ha [8]: 95 to 100%
pest or weed control at 70 g/ha [8]: 95 to 100%
pest or weed control at 140 g/ha [8]: 95 to 100%
pest or weed control at 35 g/ha [9]: 60 to 74%
pest or weed control at 70 g/ha [9]: 75 to 84%
pest or weed control at 140 g/ha [9]: 85 to 94%
pest or weed control at 35 g/ha [10]: 95 to 100%
pest or weed control at 70 g/ha [10]: 95 to 100%
pest or weed control at 140 g/ha [10]: 95 to 100%
pest or weed control at 35 g/ha [11]: 85 to 94%
pest or weed control at 70 g/ha [11]: 95 to 100%
pest or weed control at 140 g/ha [11]: 95 to 100%
pest or weed control at 35 g/ha [12]: 95 to 100%
pest or weed control at 70 g/ha [12]: 95 to 100%
pest or weed control at 140 g/ha [12]: 95 to 100%
melting point: 218 to 220 °C

Source: US9006250B2, “4-amino-6-(heterocyclic)picolinates and 6-amino-2-(heterocyclic)pyrimidine-4-carboxylates and their use as herbicides” (Dow AgroSciences, LLC, priority 2013, dated 2015)
